Source: patent US7504362B2, “Pesticidal compositions” (Merial Limited, priority 2002, dated 2009)

Each compound was assayed on Ctenocephalides felis, Diabrotica undecimpunctata, Nephotettix cincticeps or Rhipicephalus sanguineus (assay: Pooled statement: active in one or more of the above tests (Methods A to E)). Settings: active = reaching the threshold of Method A, B, C, D or E; test not given per compound.
Format: in vivo
Protocol: The following representative test procedures, using compounds of the invention, were conducted to determine the parasiticidal and pesticidal activity of compounds of the invention.
A test container was filled with 10 adults of Ctenocephalides felis. A glass cylinder was closed on one end with parafilm and placed on top of the test container. The test compound solution was then pipetted into bovine blood and added to the glass cylinder. The treated Ctenocephalides felis were held in this artificial dog test (blood 37° C., 40-60% relative humidity; Ctenocephalides felis 20-22° C., 40-60% relative humidity) and assessment performed at 24 and 48 hours after application. Active compounds gave at least 90% control of Ctenocephalides felis at a test concentration of 5 ppm or less.
Two days before application, seeds of maize were soaked in water under warm conditions to elicit fast germination. One day before application, eggs of Diabrotica undecimpunctata were transferred to one half of a Japanese filter paper placed in a plastic petri dish. Afterwards, a sprouted maize seed was placed on a moistened pad beside the filter paper. Three drops of 200 microliters of test compound solution were carefully pipetted onto the egg. The remainder of the solution was placed on the maize and then the Petri dish was closed. The treated eggs in the Petri dishes were held in a climate chamber for 6 days. The compound efficacy (percentage of dead eggs and/or larvae in comparison to untreated control) was assessed 6 days after application using a binocular microscope.
Active compounds gave at least 90% control of Diabrotica undecimpunctata at a test concentration of 10 ppm.
The leaves of 12 rice plants having a stem length of 8 cm were dipped for 5 seconds into an aqueous solution of the formulated test compound. After the solution had run off, the rice plants treated in this manner were placed in a Petri dish and populated with about 20 larvae (L3 stage) of Nephotettix cincticeps. The Petri dish was closed and then stored in a climate chamber (16 hours of light/day, 25° C., 40-60% relative humidity). After 6 days storage, the percentage mortality of leafhopper larvae was determined.
Active compounds gave at least 98% mortality of Nephotettix cinciceps larvae at a test concentration of 100 ppm.
Solutions of the test compounds were dropped onto filter paper, dried and the filter paper placed into test tubes and infested with 10 adults of Ctenocephalides felis. The treated Ctenocephalides felis were held in a climate chamber (26° C., 80% RH) and the percentage efficacy assessed 24 hours and 48 hours after application in comparison with the untreated control.
Active compounds gave at least 70% contact control of Ctenocephalides felis at a test concentration of 1000 ppm.
Solutions of the test compounds were dropped onto filter paper, dried and the filter paper placed into test tubes and infested with 20-30 larvae (L1) of Rhipicephalus sanguineus and the tubes closed with a clip. The treated Rhipicephalus sanguineus were held in a climate chamber (25° C., 90% RH) and the percentage efficacy assessed 24 hours after application in comparison with the untreated control. Active compounds gave at least 70% contact control of Rhipicephalus sanguineus at a test concentration of 100 ppm.

| SMILES | active in one or more of the above tests |
| --- | --- |
| CS(=O)(=O)Nc1c(SC(F)(F)F)c(C#N)nn1-c1c(Cl)cc(C(F)(F)F)cc1Cl [Compound 1-1] | active |
| CN(c1c(SC(F)(F)F)c(C#N)nn1-c1c(Cl)cc(C(F)(F)F)cc1Cl)S(C)(=O)=O [Compound 1-2] | active |
| CN(c1c([S+]([O-])C(F)(F)F)c(C#N)nn1-c1c(Cl)cc(C(F)(F)F)cc1Cl)S(C)(=O)=O (stereo not shown) [Compound 1-16] | active |
| CCS(=O)(=O)N(C)c1c(SC(F)(F)F)c(C#N)nn1-c1c(Cl)cc(C(F)(F)F)cc1Cl [Compound 1-44] | active |
| CCS(=O)(=O)N(C)c1c(S(=O)(=O)C(F)(F)F)c(C#N)nn1-c1c(Cl)cc(C(F)(F)F)cc1Cl [Compound 1-72] | active |
| CC(C)S(=O)(=O)N(C)c1c([S+]([O-])C(F)(F)F)c(C#N)nn1-c1c(Cl)cc(C(F)(F)F)cc1Cl (stereo not shown) [Compound 1-85] | active |
| CCCCS(=O)(=O)N(C)c1c([S+]([O-])C(F)(F)F)c(C#N)nn1-c1c(Cl)cc(C(F)(F)F)cc1Cl (stereo not shown) [Compound 1-87] | active |
| CN(c1c([S+]([O-])C(F)(F)F)c(C#N)nn1-c1c(Cl)cc(C(F)(F)F)cc1Cl)S(=O)(=O)C(F)(F)F (stereo not shown) [Compound 1-90] | active |
| CCCCCCCCS(=O)(=O)N(C)c1c([S+]([O-])C(F)(F)F)c(C#N)nn1-c1c(Cl)cc(C(F)(F)F)cc1Cl (stereo not shown) [Compound 1-93] | active |
| CCCCCCCCCS(=O)(=O)N(C)c1c([S+]([O-])C(F)(F)F)c(C#N)nn1-c1c(Cl)cc(C(F)(F)F)cc1Cl (stereo not shown) [Compound 1-94] | active |
| CCCCCCCCCCS(=O)(=O)N(C)c1c([S+]([O-])C(F)(F)F)c(C#N)nn1-c1c(Cl)cc(C(F)(F)F)cc1Cl (stereo not shown) [Compound 1-95] | active |
| CCCCCCCCCCCCS(=O)(=O)N(C)c1c([S+]([O-])C(F)(F)F)c(C#N)nn1-c1c(Cl)cc(C(F)(F)F)cc1Cl (stereo not shown) [Compound 1-96] | active |
| C=CS(=O)(=O)N(C)c1c([S+]([O-])C(F)(F)F)c(C#N)nn1-c1c(Cl)cc(C(F)(F)F)cc1Cl (stereo not shown) [Compound 1-97] | active |
| CN(c1c([S+]([O-])C(F)(F)F)c(C#N)nn1-c1c(Cl)cc(C(F)(F)F)cc1Cl)S(=O)(=O)C=Cc1ccccc1 (stereo not shown) [Compound 1-114] | active |
| CN(c1c(S(=O)(=O)C(F)(F)F)c(C#N)nn1-c1c(Cl)cc(C(F)(F)F)cc1Cl)S(=O)(=O)C=Cc1ccccc1 [Compound 1-115] | active |
| CS(=O)(=O)[N-]c1c(SC(F)(F)F)c(C#N)nn1-c1c(Cl)cc(C(F)(F)F)cc1Cl.[Na+] [Compound 1-116] | active |
| CCS(=O)(=O)Nc1c([S+]([O-])C(F)(F)F)c(C#N)nn1-c1c(Cl)cc(C(F)(F)F)cc1Cl (stereo not shown) [Compound 1-117] | active |
| CN(c1c([S+]([O-])C(F)(F)F)c(C#N)nn1-c1c(Cl)cc(C(F)(F)F)cc1Cl)S(=O)(=O)C(Cl)(Cl)Cl (stereo not shown) [Compound 1-118] | active |
| CN(c1c([S+]([O-])C(F)(F)F)c(C#N)nn1-c1c(Cl)cc(C(F)(F)F)cc1Cl)S(=O)(=O)C(Cl)Cl (stereo not shown) [Compound 1-119] | active |
| CCCCS(=O)(=O)N(C)c1c(S(=O)(=O)C(F)(F)F)c(C#N)nn1-c1c(Cl)cc(C(F)(F)F)cc1Cl [Compound 1-120] | active |
| CN(c1c(S(=O)(=O)C(F)(F)F)c(C#N)nn1-c1c(Cl)cc(C(F)(F)F)cc1Cl)S(=O)(=O)CCCCl [Compound 1-121, 1-(2,6-Dichloro-4-trifluoromethylphenyl)-5-[N-(3-chloropropylsulfonyl)-N-methylamino]-3-cyano-4-trifluoromethylsulfonylpyrazole] | active |
| CC(C)S(=O)(=O)N(C)c1c(SC(F)(F)F)c(C#N)nn1-c1c(Cl)cc(C(F)(F)F)cc1Cl [Compound 1-122] | active |

| SMILES | active in one or more of the above tests |
| --- | --- |
| CCCCCCCCS(=O)(=O)N(C)c1c([S+]([O-])C(F)(F)F)c(C#N)nn1-c1c(Cl)cc(C(F)(F)F)cc1Cl (stereo not shown) [Compound 1-123] | active |
| CCCCCCCCCS(=O)(=O)N(C)c1c(SC(F)(F)F)c(C#N)nn1-c1c(Cl)cc(C(F)(F)F)cc1Cl [Compound 1-124] | active |
| CCCCCCCCCCS(=O)(=O)N(C)c1c(SC(F)(F)F)c(C#N)nn1-c1c(Cl)cc(C(F)(F)F)cc1Cl [Compound 1-125] | active |
| CCCCCCCCCCCCS(=O)(=O)N(C)c1c([S+]([O-])C(F)(F)F)c(C#N)nn1-c1c(Cl)cc(C(F)(F)F)cc1Cl (stereo not shown) [Compound 1-126] | active |
| CN(c1c(SC(F)(F)F)c(C#N)nn1-c1c(Cl)cc(C(F)(F)F)cc1Cl)S(=O)(=O)Cc1ccccc1 [Compound 2-2] | active |
| CN(c1c([S+]([O-])C(F)(F)F)c(C#N)nn1-c1c(Cl)cc(C(F)(F)F)cc1Cl)S(=O)(=O)Cc1ccccc1 (stereo not shown) [Compound 2-16, 1-(2,6-Dichloro-4-trifluoromethylphenyl)-3-cyano-5-(N-benzylsulfonyl-N-methylamino)-4-trifluoromethylsulfinylpyrazole] | active |
| CN(c1c(S(=O)(=O)C(F)(F)F)c(C#N)nn1-c1c(Cl)cc(C(F)(F)F)cc1Cl)S(=O)(=O)Cc1ccccc1 [Compound 2-30] | active |
| CN(c1c(SC(F)(F)F)c(C#N)nn1-c1c(Cl)cc(C(F)(F)F)cc1Cl)S(=O)(=O)Cc1ccc(Cl)cc1 [Compound 2-45] | active |
| CN(c1c(SC(F)(F)F)c(C#N)nn1-c1c(Cl)cc(C(F)(F)F)cc1Cl)S(=O)(=O)Cc1ccc(Cl)c(Cl)c1 [Compound 2-48] | active |
| CN(c1c(SC(F)(F)F)c(C#N)nn1-c1c(Cl)cc(C(F)(F)F)cc1Cl)S(=O)(=O)Cc1ccc(F)cc1 [Compound 2-51] | active |
| CN(c1c(SC(F)(F)F)c(C#N)nn1-c1c(Cl)cc(C(F)(F)F)cc1Cl)S(=O)(=O)Cc1cccc(C(F)(F)F)c1 [Compound 2-57] | active |
| CN(c1c(SC(F)(F)F)c(C#N)nn1-c1c(Cl)cc(C(F)(F)F)cc1Cl)S(=O)(=O)Cc1ccc(C(F)(F)F)cc1 [Compound 2-58] | active |
| Cc1ccc(CS(=O)(=O)N(C)c2c(SC(F)(F)F)c(C#N)nn2-c2c(Cl)cc(C(F)(F)F)cc2Cl)cc1 [Compound 2-74] | active |
| CN(c1c([S+]([O-])C(F)(F)F)c(C#N)nn1-c1c(Cl)cc(C(F)(F)F)cc1Cl)S(=O)(=O)Cc1ccc(Cl)cc1 (stereo not shown) [Compound 2-80] | active |
| CN(c1c([S+]([O-])C(F)(F)F)c(C#N)nn1-c1c(Cl)cc(C(F)(F)F)cc1Cl)S(=O)(=O)Cc1ccc(F)cc1 (stereo not shown) [Compound 2-86] | active |
| CN(c1c([S+]([O-])C(F)(F)F)c(C#N)nn1-c1c(Cl)cc(C(F)(F)F)cc1Cl)S(=O)(=O)Cc1cccc(C(F)(F)F)c1 (stereo not shown) [Compound 2-92] | active |
| CN(c1c([S+]([O-])C(F)(F)F)c(C#N)nn1-c1c(Cl)cc(C(F)(F)F)cc1Cl)S(=O)(=O)Cc1cc(C(F)(F)F)cc(C(F)(F)F)c1 (stereo not shown) [Compound 2-94] | active |
| Cc1ccc(CS(=O)(=O)N(C)c2c([S+]([O-])C(F)(F)F)c(C#N)nn2-c2c(Cl)cc(C(F)(F)F)cc2Cl)cc1 (stereo not shown) [Compound 2-109] | active |
| CN(c1c(S(=O)(=O)C(F)(F)F)c(C#N)nn1-c1c(Cl)cc(C(F)(F)F)cc1Cl)S(=O)(=O)Cc1ccc(Cl)cc1 [Compound 2-115] | active |
| CN(c1c(S(=O)(=O)C(F)(F)F)c(C#N)nn1-c1c(Cl)cc(C(F)(F)F)cc1Cl)S(=O)(=O)Cc1ccc(F)cc1 [Compound 2-121] | active |
| CN(c1c(S(=O)(=O)C(F)(F)F)c(C#N)nn1-c1c(Cl)cc(C(F)(F)F)cc1Cl)S(=O)(=O)Cc1cccc(C(F)(F)F)c1 [Compound 2-127] | active |
